Experimental data taken from PMC10143306, “Seven New Lobane Diterpenoids from the Soft Coral Lobophytum catalai” (Marine Drugs, 2023).
pIC50: −log10 of the molar value. Like-named read-outs stand apart in the source and are kept apart here.

Experiments:
[1] = test system: CuSO4-induced transgenic fluorescent zebrafish (Tg: zlyz-EGFP); experiment: Anti-inflammatory assay in CuSO4-induced transgenic fluorescent zebrafish (macrophage count around neuromasts); format: in vivo; details: for Number of macrophages around nerve mound (mean ± SEM): Table S15
Experimental: On account of the fact that research on the anti-inflammatory activity of lobane diterpenoids in zebrafish models has not been reported up to now, we attempted to identify lobane diterpenoids with anti-inflammatory activity in zebrafish models. The anti-inflammatory effect of compounds 1–7 was assessed in CuSO4-induced transgenic fluorescent zebrafish. CuSO4 can produce an intense acute inflammatory response in the neuromasts and mechanosensorial cells in the lateral line of zebrafish, stimulating the infiltration of macrophages. Thus, the number of macrophages surrounding the neuromasts in zebrafish can be observed and counted under a fluorescence microscope. Therefore, the anti-inflammatory activity of these lobane diterpenoids can be evaluated.
Figure 5 Anti-inflammatory assays of compounds 1–7. (a) Images of inflammatory sites in CuSO4-induced transgenic fluorescent zebrafish (Tg: zlyz-EGFP) expressing enhanced green fluorescent protein (EGFP) treated with compounds 1–7, using indomethacin as a positive control.
Healthy macrophage fluorescent transgenic zebrafish (Tg: zlyz-EGFP) were provided by the Biology Institute of Shandong Academy of Science (Jinan, China). The zebrafish maintenance and anti-inflammation assay were carried out as previously described. Each zebrafish larva was photographed using a fluorescence microscope (AXIO, Zom.V16), and the number of macrophages around the nerve mound was calculated using Image-Pro Plus 6.0 software (Rockville, MD, USA). One-way analysis of variance was conducted using GraphPad Prism 7.00 software (San Diego, CA, USA). Lobocatalens A–G (1–7) were tested for anti-inflammatory activities in the zebrafish models. Three dpf (days post-fertilization), healthy macrophage fluorescent transgenic zebrafish were used as animal models to evaluate the anti-inflammatory effects of compounds 1–7.

[2] = test system: MDA-MB-231 (human breast cancer) cell line; experiment: Cytotoxicity assay, SRB method, MDA-MB-231; format: cell-based; details: Homo sapiens, Table S16, read-out: Inhibition rate (%); for inhibition at 30 µM: MDA-MB-231, 30 μM
Experimental: (§1) Moreover, the cytotoxic activity of these isolated compounds (1–7) was evaluated against the human leukemia K562, normal human hepatocyte L-02, human pancreatic cancer ASPC-1, and human breast cancer MDA-MB-231 cell lines.
(§2) The MTT method was used to evaluate cytotoxicity against the K562 (human leukemia) cell line, and the SRB method was used to evaluate cytotoxicity against the L-02 (normal human hepatocytes), ASPC-1 (human pancreatic cancer), and MDA-MB-231 (human breast cancer) cell lines. As a positive control, Adriamycin (doxorubicin) was used.

[3] = Cytotoxicity assay, SRB method, MDA-MB-231; format: cell-based, human; details: human, MDA-MB-231 breast cancer cells; MDA-MB-231 cell line, SRB method; read-out: Cytotoxic activity (IC50)
Experimental: as §1, §2

[4] = test system: K562 (human leukemia) cell line; experiment: Cytotoxicity assay, MTT method, K562; format: cell-based; details: Homo sapiens, read-out: Inhibition rate (%); for inhibition at 30 µM: K562, K562, 30 μM; for inhibition at 1 µM: K562, K562, 1 μM, positive control
Experimental: as §1, §2

[5] = Cytotoxicity assay, MTT method, K562; format: cell-based, human; details: human, K562 leukemia cells; K562 cell line, MTT method; read-out: Cytotoxic activity (IC50)
Experimental: as §1, §2

[6] = test system: L-02 (normal human hepatocytes) cell line; experiment: Cytotoxicity assay, SRB method, L-02; format: cell-based; details: Homo sapiens, Hepatocyte, Table S16, read-out: Inhibition rate (%); for inhibition at 30 µM: L-02, 30 μM
Experimental: as §1, §2

[7] = Cytotoxicity assay, SRB method, L-02; format: cell-based, human; details: human, L-02 normal hepatocyte cells; L-02 cell line, SRB method; read-out: Cytotoxic activity (IC50)
Experimental: as §1, §2

[8] = test system: ASPC-1 (human pancreatic cancer) cell line; experiment: Cytotoxicity assay, SRB method, ASPC-1; format: cell-based; details: Homo sapiens, ASPC1, Table S16, read-out: Inhibition rate (%); for inhibition at 30 µM: ASPC-1, 30 μM
Experimental: as §1, §2

[9] = Cytotoxicity assay, SRB method, ASPC-1; format: cell-based, human; details: human, ASPC-1 pancreatic cancer cells; ASPC-1 cell line, SRB method; read-out: Cytotoxic activity (IC50)
Experimental: as §1, §2

[10] = Danio rerio, Macrophage, 20 μM, Table S15, read-out: Inhibition rate

C=CC1(C)CCC(C2=CCC3OC2OC3(C)C)CC1C(=C)C (stereo not drawn) [Compound 1, Lobocatalen A]
Number of macrophages around nerve mound (mean ± SEM) ([1]; 20 μM): 25.67 ± 3.14 | inhibition at 20 µM [1, 10]: 19.5% | inhibition at 30 µM [2]: 21.9% | pIC50 [3]: < 4.52 | inhibition at 30 µM ([4]; Table S16): 39.9% | pIC50 [5]: < 4.52 | inhibition at 30 µM [6]: 24.9% | pIC50 [7]: < 4.52

C=CC1(C)CCC(C2=CCC(C(C)(C)O)OC2O)CC1C(=C)C (stereo not drawn) [Compound 2, Lobocatalen B]
Number of macrophages around nerve mound (mean ± SEM) ([1]; 20 μM): 30.00 ± 3.047 | inhibition at 20 µM [1, 10]: 5.93% | inhibition at 30 µM [2]: 24.2% | pIC50 [3]: < 4.52 | inhibition at 30 µM ([4]; Table S16): 48.7% | pIC50 [5]: < 4.52 | inhibition at 30 µM [6]: 30.2% | pIC50 [7]: < 4.52

C=CC1(C)CCC(C2=COC(C(C)(C)O)CC2=O)CC1C(=C)C (stereo not drawn) [Compound 3, Lobocatalen C]
Number of macrophages around nerve mound (mean ± SEM) ([1]; 20 μM): 25.30 ± 1.904 | inhibition at 20 µM [1, 10]: 20.7% | inhibition at 30 µM [2]: 19.9% | pIC50 [3]: < 4.52 | inhibition at 30 µM ([4]; Table S16): 43.5% | pIC50 [5]: < 4.52 | inhibition at 30 µM [6]: 22.1% | pIC50 [7]: < 4.52 | inhibition at 30 µM [8]: 18.6% | pIC50 [9]: < 4.52

C=CC1(C)CCC(C(C)=CC(=O)CC(C)(C)O)CC1C(=C)C (stereo not drawn) [Compound 4, Lobocatalen D]
Number of macrophages around nerve mound (mean ± SEM) ([1]; 20 μM): 22.22 ± 2.737 | inhibition at 20 µM [1, 10]: 30.3% | inhibition at 30 µM [2]: 18.4% | pIC50 [3]: < 4.52 | inhibition at 30 µM ([4]; Table S16): 36.7% | pIC50 [5]: < 4.52 | inhibition at 30 µM [6]: 21.6% | pIC50 [7]: < 4.52 | inhibition at 30 µM [8]: 18.9% | pIC50 [9]: < 4.52

C=CC1(C)CCC(C(=C)CCC(=O)C(C)(C)O)CC1C(=C)C (stereo not drawn) [Compound 5, Lobocatalen E]
Number of macrophages around nerve mound (mean ± SEM) ([1]; 20 μM): 21.89 ± 3.199 | inhibition at 20 µM [1, 10]: 31.4% | inhibition at 30 µM ([4]; Table S16): 34.3% | pIC50 [5]: < 4.52

C=CC1(C)CCC(C(C)=CC=CC(C)=O)CC1C(=C)C (stereo not drawn) [Compound 6, Lobocatalen F]
Number of macrophages around nerve mound (mean ± SEM) ([1]; 20 μM): 26.2 ± 2.356 | inhibition at 20 µM [1, 10]: 17.8% | inhibition at 30 µM [6]: 25.4% | pIC50 [7]: < 4.52

C=CC1(C)CCC(C(=O)C=CC(OC(C)=O)C(C)(C)O)CC1C(=C)C (stereo not drawn) [Compound 7, Lobocatalen G]
Number of macrophages around nerve mound (mean ± SEM) ([1]; 20 μM): 18.6 ± 1.805 | Anti-inflammatory activity (in words) ([1]; 20 μM, migration and number of macrophages surrounding the neuromasts): moderate anti-inflammatory activity | inhibition at 20 µM [1, 10]: 41.7% | inhibition at 30 µM [2]: 10.4% | pIC50 [3]: < 4.52 | inhibition at 0.9375 µM ([4]; K562, K562, 0.9375 μM, Table S17): 5.87% | inhibition at 1.875 µM ([4]; K562, K562, 1.875 μM, Table S17): 9.55% | inhibition at 3.75 µM ([4]; K562, K562, 3.75 μM, Table S17): 11.6% | inhibition at 7.5 µM ([4]; K562, K562, 7.5 μM, Table S17): 15.5% | inhibition at 15 µM ([4]; K562, K562, 15 μM, Table S17): 21% | inhibition at 30 µM ([4]; Table S16): 63.5% | inhibition at 30 µM ([4]; Table S17): 73.3% | pIC50 [5]: 4.55 | inhibition at 30 µM [6]: 29.8% | pIC50 [7]: < 4.52 | inhibition at 30 µM [8]: 17.5% | pIC50 [9]: < 4.52

COc1ccc2c(c1)c(CC(=O)O)c(C)n2C(=O)c1ccc(Cl)cc1 [Indomethacin, reference compound]
Number of macrophages around nerve mound (mean ± SEM) ([1]; 40 μM, positive control): 11.88 ± 1.575 | inhibition at 40 µM ([1]; Danio rerio, Macrophage, 40 μM, positive control, Table S15, read-out: Inhibition rate): 62.8%

COc1cccc2c1C(=O)c1c(O)c3c(c(O)c1C2=O)C[C@@](O)(C(=O)CO)C[C@@H]3O[C@H]1C[C@H](N)[C@H](O)[C@H](C)O1 [doxorubicin, reference compound]
inhibition at 1 µM ([2]; MDA-MB-231, 1 μM, positive control): 55.9% | pIC50 [3]: > 6.00 | inhibition at 1 µM ([4]; Table S16): 100% | inhibition at 1 µM ([4]; Table S17): 100% | pIC50 [5]: > 6.00 | inhibition at 1 µM ([6]; L-02, 1 μM, positive control): 83% | pIC50 [7]: > 6.00 | inhibition at 1 µM ([8]; ASPC-1, 1 μM, positive control): 52% | pIC50 [9]: > 6.00
